{"source": "patent US10821117B2", "about": "“Estrogen therapy for brain gray matter atrophy and associated disability” (The Regents of the University of California, priority 2014, dated 2020)", "system": "relapsing remitting multiple sclerosis patients", "assay": "Voxel-based morphometry (VBM) of gray matter loss", "type": "in vivo, human", "conditions": "at 12 months; FDR P≤0.05; FIG. 9", "protocol": "Voxel-based morphometry (VBM) analyses were performed as described by Kurth et al. (Neuroimage Clin. 4:454 (2014)). All subjects included in the VBM cohort were required to have at least reached month 12 of the study, and all images had to pass quality control before and after image preprocessing to be included in the VBM cohort. Using this criteria, the VBM cohort consisted of Ill subjects (62 in the estriol+GA, and 49 in the placebo+GA group) from 13 sites for month 12 analyses, and 86 of these subjects (45 in the estriol+GA, and 41 in the placebo+GA group) for 24 month analyses.\nBrain images were preprocessed utilizing SPM8 and the VBM8 toolbox. White matter lesions were in-painted to minimize their impact based on manual delineations that were used for the analysis of new T2 lesions. […]\nFor the statistical analysis, a general linear model was applied that used the smoothed gray matter segments as the dependent and group x time as the independent variable. […] Applying this model, the interaction between group and time was calculated using T-tests to investigate group differences in local gray matter changes between month 0 and month 12 (month 0 and month 24, respectively). […]"}
{"substance": "glatiramer acetate [Placebo + GA]", "values": [{"measurement": "voxel-wise gray matter loss as compared to baseline", "value": "significant localized gray matter loss"}, {"measurement": "voxel-wise gray matter loss, between group comparison", "value": "significantly more gray matter loss"}]}
